These results are taken from patent US20090253669A1, “Substituted Sulfonamide Compounds” (GRUENENTHAL GmbH, priority 2008, published 2009).

In assay [1] the target is T1, B1R receptor of the rat (rB1R) (Rattus norvegicus, UniProt P97583).
T1 construct: host or cells: CHO K1 cells
T1 sequence (P97583 1-337): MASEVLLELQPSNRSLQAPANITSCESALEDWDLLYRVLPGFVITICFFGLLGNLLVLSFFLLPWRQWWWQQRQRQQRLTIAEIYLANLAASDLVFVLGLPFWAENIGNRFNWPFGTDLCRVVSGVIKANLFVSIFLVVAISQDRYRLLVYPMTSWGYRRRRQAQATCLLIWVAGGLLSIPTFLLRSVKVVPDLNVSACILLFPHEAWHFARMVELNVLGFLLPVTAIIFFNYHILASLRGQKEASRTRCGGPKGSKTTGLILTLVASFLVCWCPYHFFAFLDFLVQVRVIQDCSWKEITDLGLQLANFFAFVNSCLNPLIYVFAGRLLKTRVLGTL
Briefly: FLIPR Ca2+ assay on rB1R-transfected CHO K1 cells, antagonistic action. Format: cell-based. Conditions: agonist Des-Arg9-bradykinin 100 nM, % of maximum achievable inhibition; for rB1R [10 μM] % inhibition: 10 μM test substance; for inhibition at 10 µM: CHO-K1, 10 μM test substance, read-out: rB1R [10 μM] % inhibition.

Assay [2] deals with T2, human B1R receptor (hB1R) (Homo sapiens, UniProt P46663).
T2 construct: host or cells: CHO K1 cells
T2 sequence (P46663 1-353): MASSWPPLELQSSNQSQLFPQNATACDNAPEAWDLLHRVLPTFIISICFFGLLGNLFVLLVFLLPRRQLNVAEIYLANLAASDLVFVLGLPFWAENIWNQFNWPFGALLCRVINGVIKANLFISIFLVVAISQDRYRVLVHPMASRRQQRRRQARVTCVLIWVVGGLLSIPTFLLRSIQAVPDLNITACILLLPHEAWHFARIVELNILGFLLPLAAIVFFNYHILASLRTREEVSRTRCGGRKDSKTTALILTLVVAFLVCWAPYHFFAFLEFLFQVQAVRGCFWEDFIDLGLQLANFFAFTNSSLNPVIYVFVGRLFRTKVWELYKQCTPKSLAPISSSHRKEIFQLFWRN
In words: FLIPR Ca2+ assay on hB1R-transfected CHO K1 cells, antagonistic action. Conditions: agonist Lys-Des-Arg9-bradykinin 0.5 nM, % of maximum achievable inhibition; for hB1R [10 μM] % inhibition: 10 μM test substance; for inhibition at 10 µM: CHO-K1, 10 μM test substance, read-out: hB1R [10 μM] % inhibition. Format: cell-based.

For `COc1cc(C)c(S(=O)(=O)N2CCCCC2COCC(=O)N2CCC(c3cccc(F)c3)(N3CCN(C)CC3)CC2)c(C)c1` (stereo not drawn) [Compound 67, 1-(4-(3-fluorophenyl)-4-(4-methylpiperazin-1-yl)piperidin-1-yl)-2-((1-(4-methoxy-2,6-dimethylphenylsulfonyl)piperidin-2-yl)methoxy)ethanone], the “rB1R [10 μM] % inhibition” value in assay [1] is recorded as 100%. Also, the “hB1R [10 μM] % inhibition” value in assay [2] was 101%.

Take `COc1cc(C)c(S(=O)(=O)N2CCCCC2COCC(=O)N(C)CCC2CCC(Cc3ccccc3)(N3CCCC3)CC2)c(C)c1` (stereo not drawn) [Compound 68, N-(2-(4-benzyl-4-(pyrrolidin-1-yl)cyclohexyl)ethyl)-2-((1-(4-methoxy-2,6-dimethylphenylsulfonyl)piperidin-2-yl)methoxy)-N-methylacetamide]: the inhibition (commonly the drop in the measured response relative to a control, in per cent) at 10 µM in assay [1] amounted to 100%; in assay [2], 103%.

On to `COc1cc(C)c(S(=O)(=O)N(C)CCOCC(=O)N2CCC(c3ccccc3)(N3CCN(c4ccncc4)CC3)CC2)c(C)c1` [Compound 69, 4-methoxy-N,2,6-trimethyl-N-(2-(2-oxo-2-(4-phenyl-4-(4-(pyridin-4-yl)piperazin-1-yl)piperidin-1-yl)ethoxy)ethyl)benzenesulfonamide], for which the inhibition at 10 µM in assay [1] is 99%; in assay [2], 102%.

On to `COc1cc(C)c(S(=O)(=O)N2CCCCC2COCC(=O)N2CCC(c3ccc(F)cc3)(N3CCN(C)CC3)CC2)c(C)c1` (stereo not drawn) [Compound 70, 1-(4-(4-fluorophenyl)-4-(4-methylpiperazin-1-yl)piperidin-1-yl)-2-((1-(4-methoxy-2,6-dimethylphenylsulfonyl)piperidin-2-yl)methoxy)ethanone], for which the inhibition at 10 µM in assay [1] came to 99%; in assay [2], 104%.

Turning to `CN(C)C1(CCc2ccccc2)CCN(C(=O)CC2CCCCN2S(=O)(=O)c2cccc(C(F)(F)F)c2)CC1` (stereo not drawn) [Compound 71, 1-(4-(dimethylamino)-4-phenethylpiperidin-1-yl)-2-(1-(3-(trifluoromethyl)phenylsulfonyl)piperidin-2-yl)ethanone], the inhibition at 10 µM in assay [1] came to 99%; in assay [2], 92%.

As for `COc1cc(C)c(S(=O)(=O)N(C)CCOCC(=O)N(C)CCC2CCC(c3ccccc3)(N(C)C)CC2)c(C)c1` (stereo not drawn) [Compound 72, N-(2-(4-(dimethylamino)-4-phenylcyclohexyl)ethyl)-2-(2-(4-methoxy-N,2,6-trimethylphenylsulfonamido)ethoxy)-N-methylacetamide], the inhibition at 10 µM in assay [1] amounted to 99%; in assay [2] it was 103%.

In the case of `COc1cc(C)c(S(=O)(=O)N2CCCCC2COCC(=O)N(C)CCC2CCC(CCc3ccccc3)(N(C)C)CC2)c(C)c1` (stereo not drawn) [Compound 73, N-(2-(4-(dimethylamino)-4-phenethylcyclohexyl)ethyl)-2-((1-(4-methoxy-2,6-dimethylphenylsulfonyl)piperidin-2-yl)methoxy)-N-methylacetamide], the figures for the inhibition at 10 µM in assay [1] and in assay [2] were 99% and 104%, respectively.

Take `CN(CCCC1CCC(Cc2ccccc2)(N2CCCC2)CC1)C(=O)CC(NS(=O)(=O)c1ccc2ccccc2c1)c1ccccc1` (stereo not drawn) [Compound 74, N-(3-(4-benzyl-4-(pyrrolidin-1-yl)cyclohexyl)propyl)-N-methyl-3-(naphthalene-2-sulfonamido)-3-phenylpropanamide]: the inhibition at 10 µM in assay [1] was determined as 99%; in assay [2] it was 102%.

Turning to `COc1cc(C)c(S(=O)(=O)N2CCCCC2COCC(=O)N2CCC(c3ccccc3)(N(C)C)CC2)c(C)c1` (stereo not drawn) [Compound 75, 1-(4-(dimethylamino)-4-phenylpiperidin-1-yl)-2-((1-(4-methoxy-2,6-dimethylphenylsulfonyl)piperidin-2-yl)methoxy)ethanone], the “rB1R [10 μM] % inhibition” value in assay [1] is recorded as 99%. The “hB1R [10 μM] % inhibition” value in assay [2] came out at 103%.

Consider `CN(CCC1CCC(CCc2ccccc2)(N(C)C)CC1)C(=O)CC1CCCCN1S(=O)(=O)c1cccc(C(F)(F)F)c1` (stereo not drawn) [Compound 76, N-(2-(4-(dimethylamino)-4-phenethylcyclohexyl)ethyl)-N-methyl-2-(1-(3-(trifluoromethyl)phenylsulfonyl)piperidin-2-yl)acetamide], for which the inhibition at 10 µM in assay [1] stood at 99%; in assay [2], 98%.

In the case of `COc1cc(C)c(S(=O)(=O)N2CCCCC2COCC(=O)N2CCC(CCc3ccccc3)(N3CCN(C)CC3)CC2)c(C)c1` (stereo not drawn) [Compound 77, 2-((1-(4-methoxy-2,6-dimethylphenylsulfonyl)piperidin-2-yl)methoxy)-1-(4-(4-methylpiperazin-1-yl)-4-phenethylpiperidin-1-yl)ethanone], the inhibition at 10 µM in assay [1] amounted to 99%; in assay [2], 100%.

As for `COc1cc(C)c(S(=O)(=O)N2CCCCC2COCC(=O)N(C)CC2CCC(Cc3ccccc3)(N3CCCC3)CC2)c(C)c1` (stereo not drawn) [Compound 78, N-((4-benzyl-4-(pyrrolidin-1-yl)cyclohexyl)methyl)-2-((1-(4-methoxy-2,6-dimethylphenylsulfonyl)piperidin-2-yl)methoxy)-N-methylacetamide], the inhibition at 10 µM is 99% in assay [1] and 101% in assay [2].

`CN(CCCC1CCC(CCc2ccccc2)(N2CCCC2)CC1)C(=O)CC(NS(=O)(=O)c1ccc2ccccc2c1)c1ccccc1` (stereo not drawn) [Compound 79, N-methyl-3-(naphthalene-2-sulfonamido)-N-(3-(4-phenethyl-4-(pyrrolidin-1-yl)cyclohexyl)propyl)-3-phenylpropanamide]: the inhibition at 10 µM in assay [1] was determined as 99%; in assay [2], 102%.

As for `Cc1cc(S(=O)(=O)N2CCCCC2CCC(=O)N2CCC(Cc3ccccc3)(N(C)C)CC2)c(C)cc1Cl` (stereo not drawn) [Compound 80, 1-(4-benzyl-4-(dimethylamino)piperidin-1-yl)-3-(1-(4-chloro-2,5-dimethylphenylsulfonyl)piperidin-2-yl)propan-1-one], the inhibition at 10 µM in assay [1] amounted to 99%; in assay [2], 86%.

In the case of `COc1cc(C)c(S(=O)(=O)N2CCCCC2COCC(=O)N(C)CCC2CCC(c3ccccc3)(N(C)C)CC2)c(C)c1` (stereo not drawn) [Compound 81, N-(2-(4-(dimethylamino)-4-phenylcyclohexyl)ethyl)-2-((1-(4-methoxy-2,6-dimethylphenylsulfonyl)piperidin-2-yl)methoxy)-N-methylacetamide], the inhibition at 10 µM was 99% in assay [1] and 104% in assay [2].

On to `CN1CCN(C2(c3ccccc3)CCN(C(=O)CC(NS(=O)(=O)c3ccc4ccccc4c3)c3ccccc3)CC2)CC1` (stereo not drawn) [Compound 82, N-(3-(4-(4-methylpiperazin-1-yl)-4-phenylpiperidin-1-yl)-3-oxo-1-phenylpropyl)naphthalene-2-sulfonamide], for which the inhibition at 10 µM in assay [1] and in assay [2] was 99% throughout.

Turning to `COc1cc(C)c(S(=O)(=O)N(C)CCOCC(=O)N(C)CCCC2CCC(c3ccccc3)(N3CCCC3)CC2)c(C)c1` (stereo not drawn) [Compound 83, 2-(2-(4-methoxy-N,2,6-trimethylphenylsulfonamido)ethoxy)-N-methyl-N-(3-(4-phenyl-4-(pyrrolidin-1-yl)cyclohexyl)propyl)acetamide], the inhibition at 10 µM in assay [1] was 99%; in assay [2], 103%.

Consider `COc1cc(C)c(S(=O)(=O)N2CCCCC2COCC(=O)N(C)CCC2CCC(Cc3ccccc3)(N(C)C)CC2)c(C)c1` (stereo not drawn) [Compound 84, N-(2-(4-benzyl-4-(dimethylamino)cyclohexyl)ethyl)-2-((1-(4-methoxy-2,6-dimethylphenylsulfonyl)piperidin-2-yl)methoxy)-N-methylacetamide], for which the inhibition at 10 µM in assay [1] stood at 99%; in assay [2], 104%.

In the case of `COc1cc(C)c(S(=O)(=O)N(C)CCOCC(=O)N(C)CCCC2CCC(Cc3ccccc3)(N3CCCC3)CC2)c(C)c1` (stereo not drawn) [Compound 85, N-(3-(4-benzyl-4-(pyrrolidin-1-yl)cyclohexyl)propyl)-2-(2-(4-methoxy-N,2,6-trimethylphenylsulfonamido)ethoxy)-N-methylacetamide], the inhibition at 10 µM in assay [1] and in assay [2] was 99% each time.

As for `CN(CCC1CCC(Cc2ccccc2)(N(C)C)CC1)C(=O)CC(NS(=O)(=O)c1ccc2ccccc2c1)c1ccccc1` (stereo not drawn) [Compound 86, N-(2-(4-benzyl-4-(dimethylamino)cyclohexyl)ethyl)-N-methyl-3-(naphthalene-2-sulfonamido)-3-phenylpropanamide], the inhibition at 10 µM was 99% in assay [1] and 101% in assay [2].

Turning to `COc1cc(C)c(S(=O)(=O)N(C)CCOCC(=O)N2CCC(CCc3ccccc3)(N3CCN(C)CC3)CC2)c(C)c1` [Compound 87, 4-methoxy-N,2,6-trimethyl-N-(2-(2-(4-(4-methylpiperazin-1-yl)-4-phenethylpiperidin-1-yl)-2-oxoethoxy)ethyl)benzenesulfonamide], the inhibition at 10 µM in assay [1] is 98%; in assay [2], 99%.
